The supplement of paper PMC11061612

Legend:
AZD0156 = compound: CN(C)CCCOc1ccc(-c2ccc3ncc4c(c3c2)n(C2CCOCC2)c(=O)n4C)cn1 [AZD0156]; conditions: max 3 µM
Method in brief: (§1)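 Cancer cell lines were plated in 1536-well plates in 7.5 μl of DMEM/F12 or RPMI with 10% FBS and kept 24 hours at 37°C and 5% CO2 before 72 hours of dosing, with final DMSO typically 0.2%. CellTiter-Glo 2.0 luminescence measured viability, scaled between blank-well and DMSO-well means. Dose responses were fitted to a two-parameter logistic curve with a non-linear mixed effects model. This fit gives the single-agent IC50.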

Lapatinib = compound: CS(=O)(=O)CCNCc1ccc(-c2ccc3ncnc(Nc4ccc(OCc5cccc(F)c5)c(Cl)c4)c3c2)o1 [Lapatinib]; conditions: max 10 µM
Method in brief: as §1

Savolitinib = compound: C[C@@H](c1ccc2nccn2c1)n1nnc2ncc(-c3cnn(C)c3)nc21 [Savolitinib]; conditions: max 1 µM
Method in brief: as §1

SG3199 = compound: CC1=CN2[C@@H](C1)C=NC3=CC(=C(C=C3C2=O)OC)OCCCCCOC4=C(C=C5C(=C4)N=C[C@@H]6CC(=CN6C5=O)C)OC [SG3199]; conditions: max 0.001 µM
Method in brief: as §1

Crizotinib = compound: C[C@@H](Oc1cc(-c2cnn(C3CCNCC3)c2)cnc1N)c1c(Cl)ccc(F)c1Cl [Crizotinib]; conditions: max 10 µM
Method in brief: as §1

Palbociclib = compound: CC(=O)c1c(C)c2cnc(Nc3ccc(N4CCNCC4)cn3)nc2n(C2CCCC2)c1=O [Palbociclib]; conditions: max 10 µM
Method in brief: as §1

Prexasertib = compound: COc1cccc(OCCCN)c1-c1cc(Nc2cnc(C#N)cn2)n[nH]1 [Prexasertib]; conditions: max 1 µM
Method in brief: as §1

Capivasertib = compound: C1CN(CCC1(C(=O)N[C@@H](CCO)C2=CC=C(C=C2)Cl)N)C3=NC=NC4=C3C=CN4 [Capivasertib]; conditions: max 10 µM
Method in brief: as §1

Taselisib = compound: Cc1nc(-c2cn3c(n2)-c2ccc(-c4cnn(C(C)(C)C(N)=O)c4)cc2OCC3)n(C(C)C)n1 [Taselisib]; conditions: max 10 µM
Method in brief: as §1

AZD5991 = compound: Cc1c2c(nn1C)CSCc1cc(n(C)n1)CSc1cc(c3ccccc3c1)OCCCc1c(C(=O)O)n(C)c3c-2c(Cl)ccc13 [AZD5991]; conditions: max 1 µM
Method in brief: as §1

AZD8186 = compound: C[C@@H](Nc1cc(F)cc(F)c1)c1cc(C(=O)N(C)C)cc2c(=O)cc(N3CCOCC3)oc12 [AZD8186]; conditions: max 3 µM
Method in brief: as §1

Trametinib = compound: CC(=O)Nc1cccc(-n2c(=O)n(C3CC3)c(=O)c3c(Nc4ccc(I)cc4F)n(C)c(=O)c(C)c32)c1 [Trametinib]; conditions: max 1 µM
Method in brief: as §1

AZD2811 = compound: CCN(CCO)CCCOc1ccc2c(Nc3cc(CC(=O)Nc4cccc(F)c4)[nH]n3)ncnc2c1 [AZD2811]; conditions: max 1 µM
Method in brief: as §1

Venetoclax = compound: CC1(C)CCC(CN2CCN(c3ccc(C(=O)NS(=O)(=O)c4ccc(NCC5CCOCC5)c([N+](=O)[O-])c4)c(Oc4cnc5[nH]ccc5c4)c3)CC2)=C(c2ccc(Cl)cc2)C1 [Venetoclax]; conditions: max 1 µM
Method in brief: as §1

Doxorubicin = compound: COc1cccc2c1C(=O)c1c(O)c3c(c(O)c1C2=O)C[C@@](O)(C(=O)CO)C[C@@H]3O[C@H]1C[C@H](N)[C@H](O)[C@H](C)O1 [Doxorubicin]; conditions: max 1 µM
Method in brief: as §1

Selumetinib = compound: Cn1cnc2c(F)c(Nc3ccc(Br)cc3Cl)c(C(=O)NOCCO)cc21 [Selumetinib]; conditions: max 10 µM
Method in brief: as §1

Gefitinib = compound: COc1cc2ncnc(Nc3ccc(F)c(Cl)c3)c2cc1OCCCN1CCOCC1 [Gefitinib]; conditions: max 10 µM
Method in brief: as §1

AZD7648 = compound: Cc1cc2ncnn2cc1Nc1ncc2c(n1)n(C1CCOCC1)c(=O)n2C [AZD7648]; conditions: max 10 µM
Method in brief: as §1

AZD5153 = compound: COc1nnc2ccc(N3CCC(c4ccc(OCCN5CCN(C)C(=O)[C@H]5C)cc4)CC3)nn12 [AZD5153]; conditions: max 1 µM
Method in brief: as §1

AZD4320 = compound: CN(CC[C@H](CSC1=CC=CC=C1)NC2=C(C=C(C=C2)S(=O)(=O)NC(=O)C3=CC=C(C=C3)N4CCC(CC4)[C@H](C5=CC=CC=C5C6=CC=C(C=C6)Cl)O)S(=O)(=O)C(F)(F)F)CCO [AZD4320]; conditions: max 1 µM
Method in brief: as §1

Alisertib = compound: COc1cc(Nc2ncc3c(n2)-c2ccc(Cl)cc2C(c2c(F)cccc2OC)=NC3)ccc1C(=O)O [Alisertib]; conditions: max 10 µM
Method in brief: as §1

SN-38 = compound: CCc1c2c(nc3ccc(O)cc13)-c1cc3c(c(=O)n1C2)COC(=O)[C@]3(O)CC [SN-38]; conditions: max 0.3 µM
Method in brief: as §1

AZD6738 = compound: C[C@@H]1COCCN1C2=NC(=NC(=C2)C3(CC3)[S@](=N)(=O)C)C4=C5C=CNC5=NC=C4 [AZD6738]; conditions: max 10 µM
Method in brief: as §1

AZD1775 = compound: C=CCn1c(=O)c2cnc(Nc3ccc(N4CCN(C)CC4)cc3)nc2n1-c1cccc(C(C)(C)O)n1 [AZD1775]; conditions: max 3 µM
Method in brief: as §1

Dasatinib = compound: CC1=C(C(=CC=C1)Cl)NC(=O)C2=CN=C(S2)NC3=CC(=NC(=N3)C)N4CCN(CC4)CCO [Dasatinib]; conditions: max 2 µM
Method in brief: as §1

AZD1390 = compound: CC(C)n1c(=O)n(C)c2cnc3cc(F)c(-c4ccc(OCCCN5CCCCC5)nc4)cc3c21 [AZD1390]; conditions: max 0.3 µM
Method in brief: as §1

Olaparib = compound: O=C(c1cc(Cc2n[nH]c(=O)c3ccccc23)ccc1F)N1CCN(C(=O)C2CC2)CC1 [Olaparib]; conditions: max 10 µM
Method in brief: as §1

Row | Cell Line | IC50, cell viability 72 h (AZD0156) [µM] | IC50, cell viability 72 h (Lapatinib) [µM] | IC50, cell viability 72 h (Savolitinib) [µM] | IC50, cell viability 72 h (SG3199) [µM] | IC50, cell viability 72 h (Crizotinib) [µM] | IC50, cell viability 72 h (Palbociclib) [µM] | IC50, cell viability 72 h (Prexasertib) [µM] | IC50, cell viability 72 h (Capivasertib) [µM] | IC50, cell viability 72 h (Taselisib) [µM] | IC50, cell viability 72 h (AZD5991) [µM] | IC50, cell viability 72 h (AZD8186) [µM] | IC50, cell viability 72 h (Trametinib) [µM] | IC50, cell viability 72 h (AZD2811) [µM] | IC50, cell viability 72 h (Venetoclax) [µM] | IC50, cell viability 72 h (Doxorubicin) [µM] | IC50, cell viability 72 h (Selumetinib) [µM] | IC50, cell viability 72 h (Gefitinib) [µM] | IC50, cell viability 72 h (AZD7648) [µM] | IC50, cell viability 72 h (AZD5153) [µM] | IC50, cell viability 72 h (AZD4320) [µM] | IC50, cell viability 72 h (Alisertib) [µM] | IC50, cell viability 72 h (SN-38) [µM] | IC50, cell viability 72 h (AZD6738) [µM] | IC50, cell viability 72 h (AZD1775) [µM] | IC50, cell viability 72 h (Dasatinib) [µM] | IC50, cell viability 72 h (AZD1390) [µM] | IC50, cell viability 72 h (Olaparib) [µM]
1 | HCC2157 (Breast Carcinoma) | > 3 | 0.0602 | > 1 | > 0.001 | 4.09 | > 10 | 0.0225 | 0.307 | 0.222 | 0.0244 | 0.667 | > 1 | 0.182 | > 1 | > 1 | > 10 | 4.41 | > 10 | 0.0126 | 0.0721 | 0.454 | 0.0141 | 2.49 | > 3 | > 2 | > 0.3 | > 10
2 | HPAC (Pancreatic Carcinoma) | > 3 | > 10 | > 1 | > 0.001 | 6.65 | > 10 | 0.0816 | > 10 | 2.38 | > 1 | > 3 | 0.0227 | > 1 | > 1 | > 1 | 3.16 | > 10 | > 10 | 0.579 | > 1 | 3.96 | > 0.3 | > 10 | 1.5 | > 2 | > 0.3 | > 10
3 | IGR-1 (Melanoma) | > 3 | 8.83 | > 1 | > 0.001 | 6.25 | > 10 | 0.617 | > 10 | > 10 | > 1 | > 3 | > 1 | > 1 | > 1 | > 1 | > 10 | > 10 | > 10 | > 1 | > 1 | > 10 | > 0.3 | > 10 | > 3 | > 2 | > 0.3 | > 10
4 | J82 (Bladder Carcinoma) | > 3 | > 10 | > 1 | > 0.001 | > 10 | > 10 | > 1 | > 10 | > 10 | > 1 | > 3 | > 1 | > 1 | > 1 | > 1 | > 10 | > 10 | > 10 | > 1 | > 1 | > 10 | 0.0805 | > 10 | > 3 | > 2 | > 0.3 | > 10
